Entries after “also recorded” stand apart in the source; their conditions may differ. Where no end group is shown, it is not given here.
Tests used:
[1] = system: insulin-stimulated glycogen synthesis in soleus muscle; assay: soleus muscle assay (insulin-stimulated glycogen synthesis); design: species or system rat; conditions: for amylin antagonist action in the soleus muscle assay: in the presence of 100 nM rat amylin
Protocol: Concentrations of peptide dissolved in carrier-free buffers are determined by quantitative amino acid analysis, as described therein. The ability of compounds to act as antagonists in this assay is determined by measuring IC50 values. Standard errors are determined by fitting of sigmoidal dose response curves using a four parameter logistic equation (De Lean, A., Munson, P. J., Guardabasso, V. and Rodbard, D. (1988) ALLFIT, Version 2.7, National Institute of Child Health and Human Development, N.I.H. Bethesda, Md., 1 diskette). […] Similar results were obtained with the other antagonist compounds listed above.

[2] = fed rats, antagonist preinfusion; cited from earlier work
[3] = mean arterial pressure after amylin injection in rats; assay type: in vivo, Male Harlan Sprague Dawley rats; conditions: 100 μg rat amylin s.c., FIG. 1c
Protocol: (§1) Male Harlan Sprague Dawley rats were housed at 22.7°±0.8° C. in a 12:12 hour light:dark cycle (experiments being performed during the light cycle) and fed and watered ad libitum (Diet LM-485, Teklad, Madison, Wis.). Animals used were aged 87-94 days and weighed 353-392 g. They were deprived of food for ~20 hours prior to experimentation.
Anesthesia was induced with 5% halothane, maintained at 2% during surgery and at 0.8-1% during recordings. Tracheotomy and cannulation of the right femoral artery and saphenous vein were performed. The femoral arterial line was connected to a pressure transducer (Spectramed P23XL transducer, Model 13-4615-58 amplifier, Gould, Cleveland, Ohio) and perfused with heparinized saline (2 U/ml) at 3.0 ml/hr. Colonic temperature was measured using a thermistor probe and controller (Model 73A, YSI, Yellow Springs, Ohio) which provided closed-loop control of core temperature by switching a heated operating table. The signal for mean arterial pressure was periodically sampled and stored with 12-bit precision at 1 Hz using a computerized data acquisition system (DT2801A A/D converters, DataTranslation, Marlboro, Mass.; AST Premium 386 computer, AST Research, Irvine, Calif.; Labtech Notebook software, Laboratory Technologies Corp, Wilmington, Mass.). […]

[4] = system: plasma renin activity; assay: plasma renin activity after subcutaneous rat amylin in anesthetized rats; assay type: in vivo, Male Harlan Sprague Dawley rats; conditions: 0.5 mg i.v. bolus + 1 mg/hr infusion before 100 μg s.c. rat amylin, n=1, FIG. 3
Protocol: as §1
Anesthesia was induced with 5% halothane, maintained at 2% during surgery and at 0.8-1% during recordings. Tracheotomy and cannulation of the right femoral artery and saphenous vein were performed. […] Colonic temperature was measured using a thermistor probe and controller (Model 73A, YSI, Yellow Springs, Ohio) which provided closed-loop control of core temperature by switching a heated operating table. […]
The remainder was frozen at -20° C. for measurement of plasma renin activity. Plasma renin activity was measured using the Gammacoat™ [^125 I] radioimmunoassay kit (Incstar Corp, Stillwater, Minn.) modified to accomodate small sample volumes. The assay system measured the renin-catalysed rate of generation of angiotensin-I in the presence of phenylmethylsulfonyl fluoride (PMSF) to prevent its proteolytic breakdown and/or conversion to angiotensin-II. Angiotensin-I generated in 90 minutes at 37° C. was then detected by specific radioimmunoassay with less than 0.02% cross reactivity to angiotensin-II, angiotensin-III or tetradecapeptide (renin substrate). […]

[5] = plasma lactate and glucose after subcutaneous rat amylin in anesthetized rats; assay type: in vivo, Male Harlan Sprague Dawley rats; conditions: 0.5 mg i.v. bolus + 1 mg/hr infusion before 100 μg s.c. rat amylin
[6] = system: amylin-induced hypocalcemia; assay: amylin-induced hypocalcemia with antagonist infusion; assay type: in vivo; conditions: 1.5 mg + 3 mg/hr infusion, FIG. 4
[7] = molecular target: T1, vascular CGRP1 receptor (Rattus norvegicus, UniProt Q63118+Q9JJ74); assay: hypotensive response to intravenous amylin in vivo; conditions: three times the dose used in this study
T1 construct: from tissue; host or cells: vasculature of the intact animal (in vivo blood pressure response)

[8] = molecular target: CGRP receptors (Homo sapiens, UniProt O60894+Q16602); assay: affinity for CGRP receptors in vitro; assay type: binding
CGRP receptors, sequence (Q16602 23-461): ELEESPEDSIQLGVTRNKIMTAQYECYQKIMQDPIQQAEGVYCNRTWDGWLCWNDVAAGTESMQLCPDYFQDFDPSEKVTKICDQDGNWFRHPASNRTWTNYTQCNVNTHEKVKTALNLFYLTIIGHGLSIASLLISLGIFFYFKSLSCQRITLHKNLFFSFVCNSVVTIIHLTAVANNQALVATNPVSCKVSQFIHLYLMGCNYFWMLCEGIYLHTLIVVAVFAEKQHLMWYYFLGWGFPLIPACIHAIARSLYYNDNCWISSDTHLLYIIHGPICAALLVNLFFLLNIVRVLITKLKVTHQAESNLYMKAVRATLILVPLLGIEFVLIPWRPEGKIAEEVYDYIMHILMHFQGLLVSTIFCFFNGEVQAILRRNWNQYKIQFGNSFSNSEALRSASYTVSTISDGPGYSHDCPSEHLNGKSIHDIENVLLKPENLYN
CGRP receptors, sequence (O60894 27-148 partner): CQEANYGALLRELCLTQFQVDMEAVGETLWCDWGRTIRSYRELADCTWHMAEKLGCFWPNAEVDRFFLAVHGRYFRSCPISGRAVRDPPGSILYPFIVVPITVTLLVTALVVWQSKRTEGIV

T1 sequence (Q63118 24-464): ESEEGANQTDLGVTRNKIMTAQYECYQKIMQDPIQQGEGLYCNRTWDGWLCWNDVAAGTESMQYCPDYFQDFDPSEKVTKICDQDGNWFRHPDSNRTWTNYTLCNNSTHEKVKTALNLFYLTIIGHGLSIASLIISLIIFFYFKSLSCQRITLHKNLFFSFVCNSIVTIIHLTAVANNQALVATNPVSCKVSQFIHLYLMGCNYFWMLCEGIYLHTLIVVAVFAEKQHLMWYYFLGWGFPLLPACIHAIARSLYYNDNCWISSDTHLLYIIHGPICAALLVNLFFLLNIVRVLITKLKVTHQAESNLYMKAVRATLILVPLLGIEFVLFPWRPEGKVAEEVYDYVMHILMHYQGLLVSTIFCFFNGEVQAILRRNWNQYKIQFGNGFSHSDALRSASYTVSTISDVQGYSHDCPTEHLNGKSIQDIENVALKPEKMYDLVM
T1 sequence (Q9JJ74 27-148 partner): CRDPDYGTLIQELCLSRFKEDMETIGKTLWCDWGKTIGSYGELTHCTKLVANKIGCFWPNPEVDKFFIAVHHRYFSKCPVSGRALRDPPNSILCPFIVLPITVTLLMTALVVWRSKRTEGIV

**Q.** Which “agonist activity in the soleus muscle assay” value (“agonist activity” for short) [1] does the source give for “^8-37 amylin (ATQRLANFLVHSSNNFGAILSSTNVGSNTY; ends and bridges not checked; UniProt P10997 41-70, looked up, fragment) [^ 8-37 amylin, amylin receptor antagonist]” here?
**A.** The value was “negligible agonist activity”.

**Q.** What about the “amylin antagonist action in the soleus muscle assay” value (shortened to “amylin antagonist action”) [1] of the same substance?
**A.** The value was “act as amylin antagonists”.

**Q.** For ^8-32 calcitonin(salmon), which “agonist activity” value [1] is on record?
**A.** The value was “negligible agonist activity”.

**Q.** And the “amylin antagonist action” value [1]?
**A.** The value was “act as amylin antagonists”.

**Q.** With “^8-37 CGRP (VTHRLAGLLSRSGGVVKNNFVPTNVGSKAF; ends and bridges not checked; UniProt P06881 90-119, looked up, fragment) [reference compound]” as the substance, how does the “insulin concentration 30 minutes following arginine infusion versus normal controls” value [2] read?
**A.** Its value is “almost twice as high”.

**Q.** What about the “agonist activity” value [1] of the same substance?
**A.** The value was “negligible agonist activity”.

**Q.** What about the “amylin antagonist action” value [1] of the same substance?
**A.** Its value is “act as amylin antagonists”.

**Q.** Which “change in mean arterial pressure” value [3] does the source give for “rat amylin: Synthetic rat amylin (Bachem, Torrance, Calif.)” here?
**A.** Its value is “lack of change; also recorded: not associated with any significant change”.

**Q.** Which “amylin-induced elevation of plasma renin activity after antagonist preinfusion” value [4] does the source give for “acetyl-^30 Asn^32 Tyr^8-32 calcitonin(salmon)” here?
**A.** The value was “no amylin-induced elevation”.

**Q.** What about the “amylin-induced increase in plasma glucose after antagonist infusion” value [5] of the same substance?
**A.** The value was “prevented”.

**Q.** And the “amylin-induced increase in plasma lactate after antagonist infusion” value [5]?
**A.** The value was “prevented”.

**Q.** And the “prevention of amylin-induced hypocalcemia” value [6]?
**A.** Its value is “did not prevent”.

**Q.** What about the “block of the hypotensive response to intravenous amylin” value [7] of the same substance?
**A.** The value was “does not fully block”.

**Q.** What about the “affinity for CGRP receptors in vitro” value [8] of the same substance?
**A.** The value was “low affinity”.
